Data reported in US11760755B2, “Hepatitis B antiviral agents” (priority 2019, dated 2023).
Where two headings read alike, the source gives them in different places.

Tests used:
HBV = assay: HepAD38 antiviral assay: reduction of viral product accumulation (virion DNA by qPCR, HBsAg/HBeAg by ELISA); type: cell-based, hepatitis B virus
Method: Methods: HepAD38 cells are maintained as previously reported (Ladner et al, Antimicrob. Agents Chemother. 1997, […], 1715). Briefly, cells are passaged upon attaining confluency in DMEM/F12 media in the presence of 10% FBS, Penn/Strep, 250 μg/mL G418, and 1 μg/ml tetracycline. Novel compounds are screened by first washing cells three times with PBS to remove tetracycline, and plating in 96 well plates at 35,000 cells/well. Compounds dissolved in DMSO are then diluted 1:200 into wells containing cells. Five days after compound addition, material is harvested for analysis. For an extended 8 day analysis, cells are plated and treated as described above, but media and compound are refreshed on d2 and d5 post initial treatment.
On harvest day, virion DNA is obtained by lysing with Sidestep Lysis and Stabilization Buffer and then quantified via quantitative real time PCR. Commercially available ELISA kits are used to quantitate the viral proteins HBsAg (Alpco) or HbeAg (US Biological) by following the manufacturer's recommended protocol after diluting samples to match the linear range of their respective assays. Irrespective of readout, compound concentrations that reduce viral product accumulation in the cell lysates or supernatants by 50% relative to no drug controls (EC50) are reported; EC50 ranges are as follows: A<0.1 μM; B 0.1-1 μM; C>1 μM.

[1] = Compound toxicity, ATPLite total ATP levels; type: cell-based; settings: human
Method: (§1) Compound toxicity is evaluated by seeding cells at 15,000 cells/well and treating with compound as described above.

HepG2 = assay: Compound toxicity, ATPLite total ATP levels; type: cell-based; settings: human, 3 days
Method: as §1

[2] = Hepatitis B virus, HePAD38, read-out: HepAD38 EC50 (μM)
[3] = HepG2 cells, HepG2, three days after compound addition, 50% reduction of total ATP levels (ATPLite), read-out: HepG2 CC50
[4] = Hepatitis B virus, HepAD38 cells, 50% reduction of viral product accumulation relative to no drug controls, class symbols, read-out: HepAD38 EC50
[5] = read-out: HepAD38 EC50, HepAD38 cells, 50% reduction of viral product accumulation relative to no drug controls, class symbols
[6] = Hepatitis B virus, HepAD38 cells, 50% reduction of viral product accumulation relative to no drug controls, numeric bound, read-out: HepAD38 EC50

| SMILES | EC50 (HBV; [2]) | EC50 (HBV; [4]) | other results |
| --- | --- | --- | --- |
| O=C(N[C@H]1CC2=C(c3ccn(C(F)F)n3)[C@H](c3ccc(F)cc3Cl)N=C(c3nccs3)N2C1)N1[C@@H]2CC[C@H]1C[C@H](O)C2 [Example 8] | 0.1 to 1 µM |  |  |
| O=S(=O)(N[C@H]1CC2=C(c3ccn(C(F)F)n3)[C@H](c3ccc(F)cc3Cl)N=C(c3nccs3)N2C1)[C@H]1CC2CCC(C1)[C@]2(O)CO [Example 27] |  | < 0.1 µM | CC50 at 3 days [1, 3]: > 25 µM |
| CC(C)(C)OC(=O)N1C2CCC1CC(NS(=O)(=O)N[C@H]1CC3=C(c4ccn(C(F)F)n4)[C@H](c4ccc(F)cc4Cl)N=C(c4nccs4)N3C1)C2 (stereo partly shown) [Example 11] | 0.1 to 1 µM |  |  |
| O=S(=O)(N[C@H]1CC2=C(c3ccn(C(F)F)n3)[C@H](c3ccc(F)cc3Cl)N=C(c3nccs3)N2C1)N1C2CCC1CC(F)(F)C2 [Example 10] | < 0.1 µM |  |  |
| O=S(=O)(C[C@H]1CC2=C(c3ccn(C(F)F)n3)[C@H](c3ccc(F)cc3Cl)N=C(c3nccs3)N2C1)N1CC2CC[C@@H](C1)[C@]2(O)c1ccccn1 [Example 37] |  | < 0.1 µM |  |
| CN([C@H]1CC2=C(c3ccn(C(F)F)n3)[C@H](c3ccc(F)cc3Cl)N=C(c3nccs3)N2C1)S(=O)(=O)N1C2CC[C@H]1C[C@@](O)(c1nccs1)C2 [Example 36] | < 0.1 µM |  | CC50 at 3 days ([1]; HepG2 CC50 (μM)): > 25 µM |
| O=S(=O)(N[C@H]1CC2=C(c3ccn(C(F)F)n3)[C@H](c3ccc(F)cc3Cl)N=C(c3nccs3)N2C1)N1C2CCC1CC(O)(Cn1ccnc1)C2 (stereo partly shown) [Example 30] | < 0.1 µM |  |  |
| O=S(=O)(N[C@H]1CC2=C(c3ccn(C(F)F)n3)[C@H](c3ccc(F)cc3Cl)N=C(c3nccs3)N2C1)N1C2CCC1CC(O)C2 (single isomer, unassigned) [Example 1] | < 0.1 µM |  | CC50 (HepG2): 10000 to 25000 nM |
| O=S(=O)(N[C@H]1CC2=C(c3ccn(C(F)F)n3)[C@H](c3ccc(F)cc3Cl)N=C(c3nccs3)N2C1)N1C2CCC1CC(O)(c1ccccn1)C2 (stereo partly shown) [Example 19] | < 0.1 µM |  |  |
| O=S(=O)(N[C@H]1CC2=C(c3ccn(C(F)F)n3)[C@H](c3ccc(F)cc3Cl)N=C(c3nccs3)N2C1)N1CC2CCC(C1)O2 [Example 2] |  | < 0.1 µM |  |
| O=C(N[C@H]1CC2=C(c3ccn(C(F)F)n3)[C@H](c3ccc(F)cc3Cl)N=C(c3nccs3)N2C1)N1C[C@H]2CC[C@@H](C1)[C@@H]2O [Example 6] |  | 0.1 to 1 µM |  |
| O=S(=O)(NC1CC2CCC(C1)C2O)N[C@H]1CC2=C(c3ccn(C(F)F)n3)[C@H](c3ccc(F)cc3Cl)N=C(c3nccs3)N2C1 (stereo partly shown) [Example 12] |  | 0.1 to 1 µM |  |
| C[C@]1(O)C2CCC1C[C@@H](S(=O)(=O)N[C@H]1CC3=C(c4ccn(C(F)F)n4)[C@H](c4ccc(F)cc4Cl)N=C(c4nccs4)N3C1)C2 [Example 25] |  | < 0.1 µM |  |
| O=S(=O)(N[C@H]1CC2=C(c3ccn(C(F)F)n3)[C@H](c3ccc(F)cc3Cl)N=C(c3nccs3)N2C1)N1C2CCC1CC(O)(c1nccs1)C2 (stereo partly shown) [Example 23] |  |  | CC50 at 3 days ([1]; HepG2 CC50 (μM)): > 25 µM; EC50 (HBV; [5]): < 0.1 µM |
| O=S(=O)(N[C@H]1CC2=C(c3ccn(C(F)F)n3)[C@H](c3ccc(F)cc3Cl)N=C(c3nccs3)N2C1)N1C2CCC1CC(O)C2 (single isomer, unassigned) [Example 3] |  |  | CC50 (HepG2): > 25000 nM; EC50 (HBV; [5]): < 0.1 µM |
| O=S(=O)(N[C@H]1CC2=C(c3ccn(C(F)F)n3)[C@H](c3ccc(F)cc3Cl)N=C(c3nccs3)N2C1)[C@H]1CC2CCC(C1)[C@]2(O)c1ccccn1 [Example 18] |  | < 0.1 µM | CC50 at 3 days [1, 3]: 10 to 25 µM |
| O=S(=O)(N[C@H]1CC2=C(c3ccn(C(F)F)n3)[C@H](c3ccc(F)cc3Cl)N=C(c3nccs3)N2C1)[C@H]1C2CC[C@H]1C[C@@](O)(CO)C2 [Example 35] |  | < 0.1 µM | CC50 at 3 days [1, 3]: > 25 µM |
| O=S(=O)(C[C@H]1CC2=C(c3ccn(C(F)F)n3)[C@H](c3ccc(F)cc3Cl)N=C(c3nccs3)N2C1)N1C2CC[C@H]1C[C@@](O)(c1ccccn1)C2 [Example 38] | 0.1 to 1 µM |  |  |

| SMILES | EC50 (HBV; [2]) | EC50 (HBV; [4]) | other results |
| --- | --- | --- | --- |
| O=C(N[C@H]1CC2=C(c3ccn(C(F)F)n3)[C@H](c3ccc(F)cc3Cl)N=C(c3nccs3)N2C1)N1CC2CCC(C1)O2 [Example 4] |  |  | EC50 (HBV; [6]): > 0.4 µM |
| O=S(=O)(N[C@H]1CC2=C(c3ccn(C(F)F)n3)[C@H](c3ccc(F)cc3Cl)N=C(c3nccs3)N2C1)N1CC2CCC(C1)C2O (stereo partly shown) [Example 15] |  | < 0.1 µM |  |
| C#C[C@]1(O)C2CCC1C[C@@H](S(=O)(=O)N[C@H]1CC3=C(c4ccn(C(F)F)n4)[C@H](c4ccc(F)cc4Cl)N=C(c4nccs4)N3C1)C2 [Example 26] |  | < 0.1 µM |  |
| O=C1C2CCC1CC(S(=O)(=O)N[C@H]1CC3=C(c4ccn(C(F)F)n4)[C@H](c4ccc(F)cc4Cl)N=C(c4nccs4)N3C1)C2 (stereo partly shown) [Example 16] |  | 0.1 to 1 µM |  |
| O=S(=O)(N[C@H]1CC2=C(c3ccn(C(F)F)n3)[C@H](c3ccc(F)cc3Cl)N=C(c3nccs3)N2C1)[C@H]1CC2CCC(C1)[C@H]2O [Example 17] |  | < 0.1 µM | CC50 at 3 days [1, 3]: 10 to 25 µM |
| O=S(=O)(N[C@H]1CC2=C(c3ccn(C(F)F)n3)[C@H](c3ccc(F)cc3Cl)N=C(c3nccs3)N2C1)N1C2CCC1CC(O)(c1cn(-c3ccccn3)nn1)C2 (stereo partly shown) [Example 24] | < 0.1 µM |  | CC50 at 3 days ([1]; HepG2 CC50 (μM)): > 25 µM |
| O=S(=O)(N[C@H]1CC2=C(c3ccn(C(F)F)n3)[C@H](c3ccc(F)cc3Cl)N=C(c3nccs3)N2C1)[C@@H]1CC2CC[C@@H](C1)[C@@]2(O)c1cn(-c2ccccn2)nn1 [Example 28] |  | < 0.1 µM |  |
| O=S(=O)(N[C@H]1CC2=C(c3ccn(C(F)F)n3)[C@H](c3ccc(F)cc3Cl)N=C(c3nccs3)N2C1)N1C2CC[C@H]1C=C(c1cn(-c3ccccn3)nn1)C2 [Example 32] | < 0.1 µM |  | CC50 at 3 days ([1]; HepG2 CC50 (μM)): > 25 µM |
| O=S(=O)(N[C@H]1CC2=C(c3ccn(C(F)F)n3)[C@H](c3ccc(F)cc3Cl)N=C(c3nccs3)N2C1)N1C2CCC1CC(O)(c1nccs1)C2 (stereo partly shown) [Example 20] | < 0.1 µM |  |  |
| O=C1CC2CC[C@@H](C1)[C@H]2S(=O)(=O)N[C@H]1CC2=C(c3ccn(C(F)F)n3)[C@H](c3ccc(F)cc3Cl)N=C(c3nccs3)N2C1 [Example 33] |  | < 0.1 µM | CC50 at 3 days [1, 3]: > 25 µM |
| O=C1NCC2(CC3CCC(C2)N3S(=O)(=O)N[C@H]2CC3=C(c4ccn(C(F)F)n4)[C@H](c4ccc(F)cc4Cl)N=C(c4nccs4)N3C2)O1 (stereo partly shown) [Example 21] | < 0.1 µM |  | CC50 at 3 days ([1]; HepG2 CC50 (μM)): > 25 µM |
| O=S(=O)(N[C@H]1CC2=C(c3ccn(C(F)F)n3)[C@H](c3ccc(F)cc3Cl)N=C(c3nccs3)N2C1)[C@H]1C2CC[C@H]1C[C@@](O)(c1ccccn1)C2 [Example 34] |  | < 0.1 µM |  |
| O=C(N[C@H]1CC2=C(c3ccn(C(F)F)n3)[C@H](c3ccc(F)cc3Cl)N=C(c3nccs3)N2C1)N1C[C@H]2CC[C@@H](C1)[C@H]2O [Example 7] |  | 0.1 to 1 µM |  |
| O=S(=O)(N[C@H]1CC2=C(c3ccn(C(F)F)n3)[C@H](c3ccc(F)cc3Cl)N=C(c3nccs3)N2C1)N1C2CC[C@H]1C[C@](O)(c1cn(-c3ccccn3)nn1)C2 [Example 31] | < 0.1 µM |  |  |
| O=C1CC2CCC(C1)N2S(=O)(=O)N[C@H]1CC2=C(c3ccn(C(F)F)n3)[C@H](c3ccc(F)cc3Cl)N=C(c3nccs3)N2C1 [Example 9] | < 0.1 µM |  | CC50 at 3 days ([1]; HepG2 CC50 (μM)): > 25 µM |
| O=S(=O)(N[C@H]1CC2=C(c3ccn(C(F)F)n3)[C@H](c3ccc(F)cc3Cl)N=C(c3nccs3)N2C1)N1CC2CCC(C1)C2(O)c1ccccn1 (stereo partly shown) [Example 14] |  | < 0.1 µM |  |
| C#CC1(O)CC2CCC(C1)N2S(=O)(=O)N[C@H]1CC2=C(c3ccn(C(F)F)n3)[C@H](c3ccc(F)cc3Cl)N=C(c3nccs3)N2C1 (stereo partly shown) [Example 22] | < 0.1 µM |  |  |
| O=C(N[C@H]1CC2=C(c3ccn(C(F)F)n3)[C@H](c3ccc(F)cc3Cl)N=C(c3nccs3)N2C1)N1[C@@H]2CC[C@H]1C[C@@H](O)C2 [Example 5] |  |  | EC50 (HBV; [6]): > 0.4 µM |
